Where a name gives a salt, the structure may show the parent alone.
Biological target: T1, Human DPP IV (Homo sapiens, UniProt P27487)
T1 construct: Human serum containing DPP-IV enzyme was diluted finally 9- to 20-fold with assay buffer; from tissue; host or cells: human serum
Experiment: In Vitro DPP-IV Inhibitory Effect Measurement Test
Type: biochemical
Details: human serum containing DPP-IV enzyme; substrate Glycyl-L-Proline 4-Methyl-Coumaryl-7-Amide 10 to 100 μM; room temperature; fluorescence 360/460 nm; read-out: Human DPP IV inhibiting activity IC50
Procedure: In Vitro DPP-IV Inhibitory Effect Measurement Test
Human serum containing DPP-IV enzyme was diluted finally 9- to 20-fold with assay buffer and added to a microassay plate. Each of solutions of each test compound having various concentrations was added thereto, followed by adding thereto a substrate (Glycyl-L-Proline 4-Methyl-Coumaryl-7-Amide, Peptide Laboratories Co., Ltd.) to a final concentration of 10 to 100 μM, and the reaction was carried out at room temperature. Acetic acid was added thereto to a final concentration of 0.5% to terminate the reaction, and the intensity of fluorescence at an excitation wavelength of 360 nm and a measuring wavelength of 460 nm was measured by the use of a fluorescent plate reader.

T1 sequence (P27487 39-766 limits assumed): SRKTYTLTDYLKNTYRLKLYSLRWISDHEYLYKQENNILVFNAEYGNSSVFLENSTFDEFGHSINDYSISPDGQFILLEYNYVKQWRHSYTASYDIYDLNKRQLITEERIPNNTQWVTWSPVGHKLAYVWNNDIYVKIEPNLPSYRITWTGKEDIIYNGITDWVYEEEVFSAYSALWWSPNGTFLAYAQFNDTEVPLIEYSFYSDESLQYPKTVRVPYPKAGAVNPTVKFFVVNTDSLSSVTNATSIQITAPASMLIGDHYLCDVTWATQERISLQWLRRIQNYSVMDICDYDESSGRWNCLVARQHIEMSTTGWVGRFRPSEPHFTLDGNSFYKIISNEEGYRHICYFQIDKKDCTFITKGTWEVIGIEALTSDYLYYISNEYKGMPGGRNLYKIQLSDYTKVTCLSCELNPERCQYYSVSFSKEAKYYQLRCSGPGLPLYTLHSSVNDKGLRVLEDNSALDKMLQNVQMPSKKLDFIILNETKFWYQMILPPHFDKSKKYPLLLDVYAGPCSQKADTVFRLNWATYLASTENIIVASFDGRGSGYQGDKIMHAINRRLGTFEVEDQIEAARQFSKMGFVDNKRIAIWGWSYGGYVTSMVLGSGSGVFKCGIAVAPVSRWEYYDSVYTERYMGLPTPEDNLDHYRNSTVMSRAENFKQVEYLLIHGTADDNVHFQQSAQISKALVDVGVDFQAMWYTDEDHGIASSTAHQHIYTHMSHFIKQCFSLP

Row | SMILES | IC50 [nM]
1 | Cn1c(=O)c2c(c(C(=O)N3CCOCC3)c(N3CCC[C@@H](N)C3)n2Cc2cc(F)ccc2Cl)n(C)c1=O [Example 44] | 9
2 | Cn1c(=O)c2c(cc(N3CCC[C@@H](N)C3)n2Cc2ccccc2C#N)n(C)c1=O [Example 8] | 7.4
3 | COCCNC(=O)c1c(N2CCC[C@@H](N)C2)n(Cc2cc(F)ccc2Cl)c2c(=O)n(C)c(=O)n(C)c12 [Example 41] | 4.1
4 | COc1ccc(-c2c(N3CCC[C@@H](N)C3)n(Cc3ccccc3Cl)c3c(=O)n(C)c(=O)n(C)c23)cc1 [Example 62] | 56
5 | Cn1c(=O)c2c(cc(N3CCC[C@@H](N)C3)n2Cc2ccccc2Cl)n(C)c1=O [Example 5, 6-(3-Aminopiperidin-1-yl)-5-(2-chlorobenzyl)-1,3-dimethyl-1H-pyrrolo[3,2-d]pyrimidine-2,4(3H,5H)-dione hydrochloride] | 15
6 | Cn1c(S(C)(=O)=O)nc2c(C#N)c(N3CCC[C@@H](N)C3)n(Cc3ccccc3Cl)c2c1=O [Example 4, 6-[(3R)-3-Aminopiperidin-1-yl]-5-(2-chlorobenzyl)-3-methyl-2-(methylsulfonyl)-4-oxo-4,5-dihydro-3H-pyrrolo[3,2-d]pyrimidine-7-carbonitrile hydrochloride] | 28
7 | CC#CCn1c(N2CCC[C@@H](N)C2)cc2c1c(=O)n(C)c(=O)n2C [Example 14] | 55
8 | Cn1c(=O)[nH]c(=O)c2c1cc(N1CCC[C@@H](N)C1)n2Cc1cc(F)ccc1Cl [Example 20] | 4.3
9 | Cn1c(=O)n(CC(=O)c2ccccc2)c(=O)c2c1cc(N1CCC[C@@H](N)C1)n2Cc1cc(F)ccc1Cl [Example 19] | 7.1
10 | COCc1c(N2CCC[C@@H](N)C2)n(Cc2ccccc2Cl)c2c(=O)n(C)c(=O)n(C)c12 [Example 56] | 31
11 | CCOC(=O)c1c(N)c(C#N)c(N2CCC[C@@H](N)C2)n1Cc1ccccc1Cl [Example 72, Ethyl 3-amino-5-[(3R)-3-aminopiperidin-1-yl]-1-(2-chlorobenzyl)-4-cyano-1H-pyrrole-2-carboxylate hydrochloride] | 1200
12 | Cn1c(=O)c2c(c(C(=O)NCC(O)CO)c(N3CCC[C@@H](N)C3)n2Cc2ccccc2Cl)n(C)c1=O (stereo partly shown) [Example 32] | 7.5
13 | Cn1c(=O)c2c(cc(N3CCC[C@@H](N)C3)n2Cc2cc(F)ccc2Cl)n(C)c1=O [Example 6, 6-(3-Aminopiperidin-1-yl)-5-(2-chloro-5-fluorobenzyl)-1,3-dimethyl-1H-pyrrolo[3,2-d]pyrimidine-2,4(3H,5H)-dione hydrochloride] | 1.9
14 | Cn1c(=O)n(Cc2cc3ccccc3cn2)c(=O)c2c1cc(N1CCC[C@@H](N)C1)n2Cc1cc(F)ccc1Cl [Example 18] | 12
15 | CCOC(=O)c1c(N2CCC[C@@H](N)C2)n(Cc2ccccc2Cl)c2c(=O)n(C)c(=O)n(C)c12 [Example 24] | 44
16 | CN(C)C(=O)c1c(N2CCC[C@@H](N)C2)n(Cc2ccccc2Cl)c2c(=O)n(C)c(=O)n(C)c12 [Example 25] | 7.6
17 | Cn1c(Oc2ccccc2C(N)=O)nc2c(C#N)c(N3CCC[C@@H](N)C3)n(Cc3ccccc3Cl)c2c1=O [Example 7, 2-{[6-(3-Aminopiperidin-1-yl)-5-(2-chlorobenzyl)-7-cyano-3-methyl-4-oxo-4,5-dihydro-3H-pyrrolo[3,2-d]pyrimidin-2-yl]oxy}benzamide hydrochloride] | 60
18 | Cn1c(=O)c2c(c(C(=O)NC3CCC3)c(N3CCC[C@@H](N)C3)n2Cc2cc(F)ccc2Cl)n(C)c1=O [Example 40] | 6.8
19 | Cn1c(=O)c2c(c(C(=O)NCC(F)(F)F)c(N3CCC[C@@H](N)C3)n2Cc2cc(F)ccc2Cl)n(C)c1=O [Example 42] | 5.7
20 | Cn1cnc2cc(N3CCC[C@@H](N)C3)n(Cc3cc(F)ccc3Cl)c2c1=O [Example 64] | 13
21 | Cn1c(=O)c2c(c(C#N)c(N3CCC[C@H](N)C3)n2Cc2cc(F)ccc2Cl)n(C)c1=O [Example 70, 6-[(3S)-3-Aminopiperidin-1-yl]-5-(2-chloro-5-fluorobenzyl)-1,3-dimethyl-2,4-dioxo-2,3,4,5-tetrahydro-1H-pyrrolo[3,2-d]pyrimidine-7-carbonitrile hydrochloride] | 3800
22 | Cn1c(=O)c2c(c(C(=O)N3CCC(O)CC3)c(N3CCC[C@@H](N)C3)n2Cc2ccccc2Cl)n(C)c1=O [Example 33] | 12
23 | Cn1c(O)nc2c(C#N)c(N3CCC[C@@H](N)C3)n(Cc3ccccc3Cl)c2c1=O [Example 3, 6-[(3R)-3-Aminopiperidin-1-yl]-5-(2-chlorobenzyl)-2-hydroxy-3-methyl-4-oxo-4,5-dihydro-3H-pyrrolo[3,2-d]pyrimidine-7-carbonitrile hydrochloride] | 26
24 | Cn1cnc2c(C(=O)N3CCOCC3)c(N3CCC[C@@H](N)C3)n(Cc3cc(F)ccc3Cl)c2c1=O [Example 66] | 5.5
25 | CC(=O)c1c(N2CCC[C@@H](N)C2)n(Cc2ccccc2Cl)c2c(=O)n(C)c(=O)n(C)c12 [Example 61] | 85
26 | Cn1c(=O)c2c(c(C(=O)N3CCCC3)c(N3CCC[C@@H](N)C3)n2Cc2ccccc2Cl)n(C)c1=O [Example 27] | 9.8
27 | CCOc1cccc(Oc2nc3c(C#N)c(N4CCC[C@@H](N)C4)n(Cc4ccccc4Cl)c3c(=O)n2C)c1 [Example 1, 6-[(3R)-3-Aminopiperidin-1-yl]-5-(2-chlorobenzyl)-2-(3-ethoxyphenoxy)-3-methyl-4-oxo-4,5-dihydro-3H-pyrrolo[3,2-d]pyrimidine-7-carbonitrile hydrochloride] | 76
28 | Cn1c(=O)c2c(c(C#N)c(N3CCC[C@@H](N)C3)n2Cc2ccccc2Cl)n(C)c1=O [Example 2, 6-[(3R)-3-Aminopiperidin-1-yl]-5-(2-chlorobenzyl)-1,3-dimethyl-2,4-dioxo-2,3,4,5-tetrahydro-1H-pyrrolo[3,2-d]pyrimidine-7-carbonitrile hydrochloride] | 21

From patent US7601728B2, “Bicyclic pyrrole derivatives” (Dainippon Sumitomo Pharma Co., Ltd., priority 2004, dated 2009)
